According to patent publication US11234436B2, “Method for controlling non-crop pests” (BASF Agrochemical Products B.V., priority 2015, dated 2022):

Tested on: German Cockroach (Blattella germanica)
Assay: Test 1: activity against German cockroach, treated glass vial contact, mortality
Assay type: in vivo
Details: alone, 1 h exposure in treated vial
Protocol: Test 1. Activity Against German Cockroach (Blattella germanica)
Glass vials were treated with 445 μl of varying concentrations of the technical grade active ingredient dissolved in acetone. Vials were turned on their sides and placed on an automated roller table. The vials were rolled (6 rpm) uncapped to allow an even coating of the treatment. Each treatment was replicated five times.
Prior to infestation, cockroaches were incapacitated using carbon dioxide (CO2). Approximately 6 insects were transferred with featherweight, broad tip forceps into treated vials, and held in an environmental chamber at 27° C. and 80% relative humidity for one hour. Following this exposure period, a small amount of CO2 was used to incapacitate the insects facilitating removal from treated vials. Insects were then transferred to 16 oz plastic holding containers provisioned with a small piece of dry cat food and a cotton wick moistened with water, and returned to the environmental chamber. Mortality was assessed at 1, 2, and 3 days after exposure (DAE).

CC1(C)C(C=C(Cl)Cl)C1C(=O)OC(C#N)c1cccc(Oc2ccccc2)c1 (stereo not drawn) [Alphacypermethrin, alpha-cypermethrin]
Average Control % (Test Mixture 1.4, 1.96 ppm): 0%

CCOCn1c(-c2ccc(Cl)cc2)c(C#N)c(Br)c1C(F)(F)F [Chlorfenapyr, chlorfenapyr]
Average Control % (Test Mixture 1.3, 100 ppm): 3.3%

CN(C(=O)c1ccccc1)c1cccc(C(=O)Nc2c(Br)cc(C(F)(C(F)(F)F)C(F)(F)F)cc2C(F)(F)F)c1F [Compound i) of formula (I), broflanilide]
Average Control % (Mixture 1.1, 9.2 ppm): 10% | Average Control % (Test Mixture 1.2, 10 ppm): 10% | Average Control % (Test Mixture 1.3, 9.5 ppm): 26.7% | Average Control % (Test Mixture 1.4, 9.5 ppm): 46.7%

CN/C(=N/CC1CCOC1)N[N+](=O)[O-] (centres unmarked) [Dinotefuran, dinotefuran]
Average Control % (Mixture 1.1, 2.6 ppm): 16.7% | Average Control % (Test Mixture 1.2, 4.1 ppm): 30%
